Data from patent US8470820B2, “Nitrogen-containing heteroaryl derivatives” (Hoffman-La Roche Inc., priority 2010, dated 2013).
pIC50: −log10 of the molar value.

Molecular target: human PDE10A (Homo sapiens (Human), UniProt Q9Y233)
Experiment: human PDE10A full length Scintillation Proximity Assay (SPA)
Format: biochemical
Details: 50 nM cGMP and 50 nM [3H]-cGMP, 20 minutes at room temperature, read-out: PDE10A inhibition IC50
Description: The following test was carried out in order to determine the activity of the compounds of the present invention. PDE10 activity of the compounds of the present invention was determined using a Scintillation Proximity Assay (SPA)-based method similar to the one previously described (Fawcett, L. et al., Proc Natl Acad Sci USA (2000) 97(7):3702-3707).
The human PDE10A full length assay was performed in 96-well micro titer plates. The reaction mixture of 50 μl contained 20 mM HEPES pH=7.5/10 mM MgCl2/0.05 mg/ml BSA (Sigma cat. # A-7906), 50 nM cGMP (Sigma, cat. # G6129) and 50 nM [^3H]-cGMP (GE Healthcare, cat. # TRK392 S.A. 13.2Ci/mmol), 3.75 ng/well PDE10A enzyme (Enzo Life Science, Lausen, Switzerland cat # SE-534) with or without a specific test compound. A range of concentrations of the potential inhibitor was used to generate data for calculating the concentration of inhibitor resulting in 50% of the effect (e.g. IC50, the concentration of the competitor inhibiting PDE10A activity by 50%). Non-specific activity was tested without the enzyme. The reaction was initiated by the addition of the substrate solution (cGMP and [^3H]-cGMP) and allowed to progress for 20 minutes at room temperature. The reaction was terminated by adding 25 μA of YSi-SPA scintillation beads (GE Healthcare, cat. # RPNQ0150) in 18 mM zinc sulphate solution (stop reagent). After 1 h under shaking, the plate was centrifuged one minute at 170 g to allow beads to settle. Afterwards, radioactive counts were measured on a Perkin Elmer TopCount Scintillation plate reader.

human PDE10A, sequence (Q9Y233 other isoform, or with tags, fused parts or gaps): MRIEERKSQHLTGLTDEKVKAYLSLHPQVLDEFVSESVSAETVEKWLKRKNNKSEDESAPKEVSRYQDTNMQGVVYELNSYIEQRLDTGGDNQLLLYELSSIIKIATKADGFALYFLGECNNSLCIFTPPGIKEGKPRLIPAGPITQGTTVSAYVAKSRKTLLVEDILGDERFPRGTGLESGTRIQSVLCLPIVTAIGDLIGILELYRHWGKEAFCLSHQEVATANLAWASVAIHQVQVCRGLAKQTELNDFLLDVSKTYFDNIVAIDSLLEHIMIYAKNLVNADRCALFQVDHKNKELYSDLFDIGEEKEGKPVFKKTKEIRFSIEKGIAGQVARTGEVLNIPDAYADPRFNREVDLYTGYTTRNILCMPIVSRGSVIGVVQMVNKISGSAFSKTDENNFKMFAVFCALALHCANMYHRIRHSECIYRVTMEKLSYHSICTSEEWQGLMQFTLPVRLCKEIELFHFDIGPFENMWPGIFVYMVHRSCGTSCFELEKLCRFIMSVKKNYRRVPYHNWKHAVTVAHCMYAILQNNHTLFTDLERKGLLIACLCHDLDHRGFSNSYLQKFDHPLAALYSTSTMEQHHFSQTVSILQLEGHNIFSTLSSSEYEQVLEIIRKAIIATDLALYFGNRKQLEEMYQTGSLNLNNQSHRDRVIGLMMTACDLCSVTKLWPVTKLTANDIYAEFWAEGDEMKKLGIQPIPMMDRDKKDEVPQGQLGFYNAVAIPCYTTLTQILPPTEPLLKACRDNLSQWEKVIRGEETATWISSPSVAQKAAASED

Row | pIC50 | SMILES
1 | 7.62 | CN(C)CCn1nc(NC(=O)c2nc(C3CC3)ccc2Nc2cncnc2)cc1-c1ccccn1 [Example 42, 6-Cyclopropyl-3-(pyrimidin-5-ylamino)-pyridine-2-carboxylic acid [1-(2-dimethylamino-ethyl)-5-pyridin-2-yl-1H-pyrazol-3-yl]-amide]
2 | 8.40 | CN1CCC(n2nc(-c3ccccn3)cc2NC(=O)c2nc(C3CC3)ccc2Nc2cncnc2)CC1 [Example 43, 6-Cyclopropyl-3-(pyrimidin-5-ylamino)-pyridine-2-carboxylic acid [2-(1-methyl-piperidin-4-yl)-5-pyridin-2-yl-2H-pyrazol-3-yl]-amide]
3 | 5.73 | COc1ccc(-c2nnc(NC(=O)c3nc(C4CC4)ccc3Nc3cncnc3)s2)cc1 [Example 44, 6-Cyclopropyl-3-(pyrimidin-5-ylamino)-pyridine-2-carboxylic acid [5-(4-methoxy-phenyl)-[1,3,4]thiadiazol-2-yl]-amide]
4 | 5.20 | O=C(Nc1nnc(-c2ccc(F)cc2)s1)c1nc(C2CC2)ccc1Nc1cncnc1 [Example 45, 6-Cyclopropyl-3-(pyrimidin-5-ylamino)-pyridine-2-carboxylic acid [5-(4-fluoro-phenyl)-[1,3,4]thiadiazol-2-yl]-amide]
5 | 6.21 | O=C(Nc1cc(-c2ccccc2)no1)c1nc(C2CC2)ccc1Nc1cncnc1 [Example 46, 6-Cyclopropyl-3-(pyrimidin-5-ylamino)-pyridine-2-carboxylic acid (3-phenyl-isoxazol-5-yl)-amide]
6 | 5.84 | O=C(Nc1cc(-c2ccccc2)on1)c1nc(C2CC2)ccc1Nc1cncnc1 [Example 47, 6-Cyclopropyl-3-(pyrimidin-5-ylamino)-pyridine-2-carboxylic acid (5-phenyl-isoxazol-3-yl)-amide]
7 | 6.36 | O=C(Nc1nnc(-c2ccccc2)s1)c1nc(C2CC2)ccc1Nc1cncnc1 [Example 48, 6-Cyclopropyl-3-(pyrimidin-5-ylamino)-pyridine-2-carboxylic acid (5-phenyl-[1,3,4]thiadiazol-2-yl)-amide]
8 | 6.13 | O=C(Nc1nnc(-c2cnccn2)s1)c1nc(C2CC2)ccc1Nc1cncnc1 [Example 49, 6-Cyclopropyl-3-(pyrimidin-5-ylamino)-pyridine-2-carboxylic acid (5-pyrazin-2-yl-[1,3,4]thiadiazol-2-yl)-amide]
9 | 9.00 | O=C(Nc1ccc(-c2ccccn2)s1)c1nc(C2CC2)ccc1Nc1cncnc1 [Example 50, 6-Cyclopropyl-3-(pyrimidin-5-ylamino)-pyridine-2-carboxylic acid (5-pyridin-2-yl-thiophen-2-yl)-amide]
10 | 8.40 | O=C(Nc1cc(-c2ccccn2)no1)c1nc(C2CC2)ccc1Nc1cncnc1 [Example 51, 6-Cyclopropyl-3-(pyrimidin-5-ylamino)-pyridine-2-carboxylic acid (3-pyridin-2-yl-isoxazol-5-yl)-amide]
11 | 7.48 | O=C(Nc1cn(-c2ccccn2)cn1)c1nc(C2CC2)ccc1Nc1cncnc1 [Example 52, 6-Cyclopropyl-3-(pyrimidin-5-ylamino)-pyridine-2-carboxylic acid (1-pyridin-2-yl-1H-imidazol-4-yl)-amide]
12 | 7.70 | CC(C)c1ncc(Nc2cncnc2)c(C(=O)Nc2cc(-c3ccccn3)nn2C)n1 [Example 53, 2-Isopropyl-5-(pyrimidin-5-ylamino)-pyrimidine-4-carboxylic acid (2-methyl-5-pyridin-2-yl-2H-pyrazol-3-yl)-amide]
13 | 7.06 | Cn1nc(-c2ccccn2)cc1NC(=O)c1nc(C2CC2)ncc1Nc1cncnc1 [Example 54, 2-Cyclopropyl-5-(pyrimidin-5-ylamino)-pyrimidine-4-carboxylic acid (2-methyl-5-pyridin-2-yl-2H-pyrazol-3-yl)-amide]

Continued, compound first:

Row | SMILES | pIC50
14 | CCn1nc(-c2ccccn2)cc1NC(=O)c1nc(C2CC2)ccc1Nc1cncnc1 [Example 30, 6-Cyclopropyl-3-(pyrimidin-5-ylamino)-pyridine-2-carboxylic acid (2-ethyl-5-pyridin-2-yl-2H-pyrazol-3-yl)-amide] | 8.30
15 | O=C(Nc1cc(-c2ccccn2)nn1CC1CCCC1)c1nc(C2CC2)ccc1Nc1cncnc1 [Example 31, 6-Cyclopropyl-3-(pyrimidin-5-ylamino)-pyridine-2-carboxylic acid (2-cyclopentylmethyl-5-pyridin-2-yl-2H-pyrazol-3-yl)-amide] | 9.00
16 | O=C(Nc1cc(-c2ccccn2)nn1CC1CCCCC1)c1nc(C2CC2)ccc1Nc1cncnc1 [Example 32, 6-Cyclopropyl-3-(pyrimidin-5-ylamino)-pyridine-2-carboxylic acid (2-cyclohexylmethyl-5-pyridin-2-yl-2H-pyrazol-3-yl)-amide] | 9.00
17 | N#CCCn1nc(-c2ccccn2)cc1NC(=O)c1nc(C2CC2)ccc1Nc1cncnc1 [Example 33, 6-Cyclopropyl-3-(pyrimidin-5-ylamino)-pyridine-2-carboxylic acid [2-(2-cyano-ethyl)-5-pyridin-2-yl-2H-pyrazol-3-yl]-amide] | 6.77
18 | CCc1ccc(Nc2cncnc2)c(C(=O)Nc2cc(-c3ccccn3)nn2CCO)n1 [Example 34, 6-Ethyl-3-(pyrimidin-5-ylamino)-pyridine-2-carboxylic acid [2-(2-hydroxy-ethyl)-5-pyridin-2-yl-2H-pyrazol-3-yl]-amide] | 9.00
19 | Cc1cnc(Nc2cncnc2)c(C(=O)Nc2cc(-c3ccccn3)nn2C)n1 [Example 35, 6-Methyl-3-(pyrimidin-5-ylamino)-pyrazine-2-carboxylic acid (2-methyl-5-pyridin-2-yl-2H-pyrazol-3-yl)-amide] | 7.68
20 | Cc1cnc(Nc2cncnc2)c(C(=O)Nc2cc(-c3ccccn3)nn2CCO)n1 [Example 36, 6-Methyl-3-(pyrimidin-5-ylamino)-pyrazine-2-carboxylic acid [2-(2-hydroxy-ethyl)-5-pyridin-2-yl-2H-pyrazol-3-yl]-amide] | 8.40
21 | Cn1cncc1Cn1nc(-c2ccccn2)cc1NC(=O)c1nc(C2CC2)ccc1Nc1cncnc1 [Example 37, 6-Cyclopropyl-3-(pyrimidin-5-ylamino)-pyridine-2-carboxylic acid [2-(3-methyl-3H-imidazol-4-ylmethyl)-5-pyridin-2-yl-2H-pyrazol-3-yl]-amide] | 8.70
22 | COCCn1nc(-c2ccccn2)cc1NC(=O)c1nc(C2CC2)ccc1Nc1cncnc1 [Example 38, 6-Cyclopropyl-3-(pyrimidin-5-ylamino)-pyridine-2-carboxylic acid [2-(2-methoxy-ethyl)-5-pyridin-2-yl-2H-pyrazol-3-yl]-amide] | > 9.00
23 | Cn1nc(-c2ccc(Cl)cn2)cc1NC(=O)c1nc(C2CC2)ccc1Nc1cncnc1 [Example 39, 6-Cyclopropyl-3-(pyrimidin-5-ylamino)-pyridine-2-carboxylic acid [5-(5-chloro-pyridin-2-yl)-2-methyl-2H-pyrazol-3-yl]-amide] | 8.52
24 | Cn1nc(-c2ccc3ccccc3n2)cc1NC(=O)c1nc(C2CC2)ccc1Nc1cncnc1 [Example 40, 6-Cyclopropyl-3-(pyrimidin-5-ylamino)-pyridine-2-carboxylic acid (2-methyl-5-quinolin-2-yl-2H-pyrazol-3-yl)-amide] | > 9.00
25 | Cn1nc(-c2cccc(Cl)n2)cc1NC(=O)c1nc(C2CC2)ccc1Nc1cncnc1 [Example 41, 6-Cyclopropyl-3-(pyrimidin-5-ylamino)-pyridine-2-carboxylic acid [5-(6-chloro-pyridin-2-yl)-2-methyl-2H-pyrazol-3-yl]-amide] | 8.52
